# According to patent publication US20220296583A1, “COMPOSITIONS AND METHODS FOR TREATMENT OF OVARIAN AND BREAST CANCER” (Board of Regents, The University of Texas System, priority 2021, published 2022):
# Read-outs that look alike come from different tables or passages of the source.
# How the values were obtained:
# [1] = tested on: SIK2-expressed SKOV3 cells; test: Cell viability assessment of SKOV3; assay type: cell-based
# OVCAR3 = test: CellTiter-Glo cell viability dose response; assay type: cell-based; conditions: Homo sapiens, OVCAR-3, 96 h
# Procedure: (§1) Luminescence was measured on a Synergy2 microplate reader (BioTek) after 10 min of shaking. Dose-response experiments were plotted and IC50 values were calculated using nonlinear curve fitting with normalized response and variable slope by GraphPad Prism 8. Drug interaction of the two-drug combination using a constant ratio were processed and a Combination Index (CI) was calculated using CalcuSyn 2.0 (BIOSOFT). CI<1 indicates synergism, CI=1 indicates additive effect and CI>1 indicates antagonism.
# IGROV1 = test: CellTiter-Glo cell viability dose response; assay type: cell-based; conditions: Homo sapiens, IGROV-1, 96 h
# Procedure: as §1
# DOV13 = test: CellTiter-Glo cell viability dose response; assay type: cell-based; conditions: Homo sapiens, DOV13, 96 h
# Procedure: as §1
# OV90 = test: CellTiter-Glo cell viability dose response; assay type: cell-based; conditions: Homo sapiens, OV-90, 96 h
# Procedure: as §1
# BT549 = test: CellTiter-Glo cell viability dose response; assay type: cell-based; conditions: Homo sapiens, BT-549, 96 h
# Procedure: as §1
# OAW28 = test: CellTiter-Glo cell viability dose response; assay type: cell-based; conditions: Homo sapiens, OAW-28, 96 h
# Procedure: as §1
# NOE72 = test: CellTiter-Glo cell viability dose response; assay type: cell-based; conditions: 96 h
# Procedure: as §1
# HCC5032 = test: CellTiter-Glo cell viability dose response; assay type: cell-based; conditions: 96 h
# Procedure: as §1
# MDA-MD-231 = test: CellTiter-Glo cell viability dose response; assay type: cell-based; conditions: Homo sapiens, 96 h
# Procedure: as §1
# OC316 = test: CellTiter-Glo cell viability dose response; assay type: cell-based; conditions: Homo sapiens, 96 h
# Procedure: as §1
# OVCAR8 = test: CellTiter-Glo cell viability dose response; assay type: cell-based; conditions: Homo sapiens, OVCAR-8, 96 h
# Procedure: as §1
# HMEC16620 = test: CellTiter-Glo cell viability dose response; assay type: cell-based; conditions: Homo sapiens, 96 h
# Procedure: as §1
# MDA-2774 = test: CellTiter-Glo cell viability dose response; assay type: cell-based; conditions: Homo sapiens, 96 h
# Procedure: as §1
# SKOv3 = test: CellTiter-Glo cell viability dose response; assay type: cell-based; conditions: Homo sapiens, SK-OV-3, 96 h
# Procedure: as §1
# [2] = tested on: SKOv3, OVCAR8, HCC5032, or MDA-MB-231 cells; test: DNA damage: γ-H2AX staining and comet assay with olaparib; assay type: cell-based; conditions: SKOv3, OVCAR8, HCC5032, MDA-MB-231
# Procedure: Cells were trypsinized and resuspended at 2×10^5/mL in cold PBS without Ca^2+ and Mg^2+. Cells were mixed with pre-warmed comet agarose at 1:10 (v/v) ratio. 10 uL of cell agarose mixture was plated onto comet slides pre-coated with 75 uL of agarose and chilled at 4° C. for 15 min to set. Cells were lysed in 25 mL of Lysis buffer at 4° C. for 2 hrs and washed with alkaline solution (pH 10). Comet slides were electrophoresed in cold alkaline solution at 20V for 15 min. Slides were rinsed with water and dried in 70% ethanol for 5 min. Slides were then stained with Vista Green DNA dye and viewed using an Olympus epifluorescence microscope with a FITC filter. Images were captured using a 20× objective. […] Experiments were run in triplicate and Olive Tail Moment was measured using CaspLab1.2.3β2 software (CaspLab.com). Olive Tail Moment=Tail DNA %×Tail Length. 50-200 Cells were measured for each treatment and experiments were repeated twice independently to ensure reproducibility.
# Cells on 22×22 mm coverslips were fixed in 4% formaldehyde in PBS (Thermo Fisher, J19943-K2) and permeabilized with 0.1% Triton X-100 (Sigma, X100) in PBS for 15 min. Cells were blocked with 5% BSA in PBS for 30 min and then stained with antibody overnight at 4° C., followed by secondary antibody and DAPI for 1 hr. […] After 24-hrs incubation, cells were fixed in 4% formaldehyde in PBS. Cells were stained as described above. […] DNA damage visualized by γ-H2AX staining was evaluated by counting nuclear γ-H2AX puncta in each cell. […] After 8 hrs incubation, cells were fixed in 4% formaldehyde in PBS. Cells were stained as described above. Images were captured using an Olympus IX71 microscope and nuclear γ-H2AX puncta in each cells were counted using with Olympus CellSens Dimension software. HDAC5 (CST20458) and γ-H2AX (CST2577) antibodies were purchased from Cell Signaling Technology. Experiments were repeated twice independently to ensure reproducibility and 50-200 cells were counted for each treatment.
# [3] = tested on: HDAC4 (Ser246)/HDAC5 (Ser256)/HDAC7 (Ser155); test: Western analysis of HDAC4/5/7 phosphorylation; assay type: cell-based; conditions: 4 μM, 24 hrs; nearly all the cell lines tested
# Procedure: (§2) To identify the mechanism(s) by which SIK2 inhibition decreases DNA DBS repair, it was tested whether SIK2 inhibitors decrease the phosphorylation of class IIa HDACs, which control its nuclear cytoplasmic shuttling and consequently its association with DNA. […] Next, it was investigated whether SIK2 inhibitors increase nuclear localization of HDAC5. SIK2 inhibition increased nuclear localization of HDAC5 judged by increasing nuclear florescence intensity (FIG. 7B and FIG. 8A) and the nuclear fraction of HDAC5 expression (FIG. 8B). […] Therefore, it was hypothesized that SIK2 inhibition may block MEF transcription factor activity. […] Next, it was examined whether SIK2 regulation of MEF2 activity was HDAC4/5-dependent, increasing its binding to MEF2D protein. […] These observations are consistent with the hypothesis that SIK2 inhibition increases nuclear localization of HDAC4/5, blocking MEF2 transcription (FIG. 8E).
# Cells were incubated with and without treatment for the intervals indicated and then cells were incubated in lysis buffer (50 mM Hepes, pH 7.0, 150 mM NaCl, 1.5 mM MgCl2, 1 mM EGTA, 10, 10% glycerol, 1% Triton X-100, 50 mM NaF, 1 mM Na3VO4 1 mM PMSF, 10 μg/mL leupeptin and10 μg/mL aprotinin) on ice for 30 min. […] The protein concentration was assessed using a bicinchoninic acid (BCA) protein assay (Thermo Scientific, 23228). […]
# MEF2 promoter activity = test: MEF2 luciferase reporter assay; assay type: cell-based; conditions: ovarian and breast cancer cell lines; time- and dose-dependent
# Procedure: as §2
# SKOv3 xenograft [4] = test: SKOv3 subcutaneous xenograft, SIK2 inhibitor and olaparib; assay type: in vivo, mice; conditions: SKOv3 s.c.; oral, five times per week, 4 weeks
# SKOv3 cells = conditions: RNA-seq
# MDA-MB-231 xenograft = test: MDA-MB-231 mammary fat pad xenograft, Compound B and olaparib; assay type: in vivo, mice; conditions: 50 mg/kg, oral, 5 weeks
# Procedure: Forty female nu/nu mice were injected with 0.8×10^6 MDA-MB-231 cells into their fourth mammary fat pads. […] Tumors were measured every week as noted above (SKOv3 xenograft models).
# SKOv3 xenograft [5] = test: SKOv3 subcutaneous xenograft, Compound B, carboplatin and paclitaxel; assay type: in vivo, mice; conditions: SKOv3 s.c.; 6 weeks; Compound B 40 mg/kg
# Procedure: After treatment as indicated in (A) for three weeks, mice were weighed, and intraperitoneal nodules were excised and weighed. […] Mice were treated with single, double, or triple agents for 6 weeks. Tumor was measured once a week until the tumor burden in control group reached maximum allowance. The graphs indicate the mean±standard deviation. Statistical significance is indicated by *p<0.05, **p<0.01, and ***p<0.0001.
# Six-week-old female athymic nu/nu mice were purchased from Envigo. Experiments were reviewed and all procedures were performed according to an animal protocol approved by the Institutional Animal Care and Use Committee of UT MD Anderson Cancer Center. […] Carboplatin was administrated i.p. once a week at a dose of 25 mg/kg. […] Carboplatin was treated at a dose of 30 mg/kg once a week for six weeks. […] At end of six weeks, the mice were sacrificed by CO2. The mice were dissected immediately after death and the tumors were collected and weighed.
# OVCAR8 cells were injected intraperitoneally (ip) into nu/nu mice. Treatment started 7 days post injection. […] At the conclusion of the treatment, the mice were sacrificed, and the tumor was dissected and weighed (FIG. 23A). […] The tumor volume was measured at indicated time points (FIG. 23D).
# A2780-CP20 = test: Cell viability, cisplatin-resistant sub-line; assay type: cell-based; conditions: 96 h
# Procedure: (§3) Cisplatin-resistant A2780-CP20 and cisplatin-sensitive A27801 PAR sub-lines were plated at a density of 2000/well in 96-well plates, then treated with different concentrations of carboplatin for 96 h as indicated. Cell viability was measured with a bioluminescence assay and the IC50 was calculated. […] (C, D).
# (§4) Cells were seeded in 6 replicates in black-walled and clear-bottomed 96-well plates and incubated overnight. […] The CellTiter-Glo luminescent cell viability assay (Promega) was used to evaluate the effect of treatment on cancer growth. This experiment was performed several times to optimize the concentration. […] GraphPad Prism 8 was used to generate growth curves and calculated IC50. CalcuSyn was used to evaluate additive or synergistic interactions, a combination Index (CI value).
# (§5) Platinum resistance is commonly seen in ovarian cancer patients with recurrent disease. There is currently no standard chemotherapy for platinum-resistant recurrence. Targeting DNA damage and repair is an attractive therapeutic approach in platinum-resistant ovarian cancer.
# A2780-PAR = test: Cell viability, cisplatin-sensitive sub-line; assay type: cell-based; conditions: 96 h
# Procedure: as §3, §4, §5
Structure (SMILES),IC50 (OVCAR3) [µM],IC50 (IGROV1) [µM],IC50 (DOV13) [µM],IC50 (OV90) [µM],IC50 (BT549) [µM],IC50 (OAW28) [µM],IC50 (NOE72) [µM],IC50 (HCC5032) [µM],IC50 (MDA-MD-231) [µM],IC50 (OC316) [µM],IC50 (OVCAR8) [µM],IC50 (HMEC16620) [µM],IC50 (MDA-2774) [µM],IC50 (SKOv3) [µM],levels of γ-H2AX and tailed DNA [2],tumor growth (tumor volume) (SKOv3 xenograft [5]),other results
"N.N.[Cl][Pt][Cl] [Cisplatin, cisplatin]",,,,,,,,,,,,,,,,,"IC50 ([1]; SK-OV-3, Table 9, cisplatin combinations): 16.8 µM; IC50 ([1]; SKOV3, Table 6, FIG. 26, top locked at 100): 17 µM"
"COc1c(F)cc(F)cc1-c1c[nH]c2ncc(-c3cnn(C4CCNCC4)c3)cc12 [Compound A, 3-(3,5-difluoro-2-methoxyphenyl)-5-(1-(piperidin-4-yl)-1H-pyrazol-4-yl)-1H-pyrrolo[2,3-b]pyridine]",2.83,1.08,2.81,3.87,2.02,1.71,5.75,2.24,2.37,1.26,1.4,3.6,1.08,1.23,modestly increased,,phosphorylation of HDAC4/HDAC5/HDAC7 [3]: significantly decreased
"O=C(c1cc(Cc2n[nH]c(=O)c3ccccc23)ccc1F)N1CCN(C(=O)C2CC2)CC1 [Olaparib, olaparib]",3.79,2.83,32.2,8.36,13.7,3.66,6.38,14.5,4.47,4.91,6.4,1.2,6.29,55.5,modestly increased,,MEF2 promoter activity (MEF2 promoter activity): did not; tumor growth (SKOv3 xenograft [4]): significantly inhibited tumor growth; numbers of transcripts up or down-regulated by ≥2-fold (SKOv3 cells): 3; tumor burden / tumor volume (MDA-MB-231 xenograft): remained unchanged
"CC(=O)O[C@H]1C(=O)[C@@]2(C)[C@H]([C@H](OC(=O)c3ccccc3)[C@]3(O)C[C@H](OC(=O)[C@H](O)[C@@H](NC(=O)c4ccccc4)c4ccccc4)C(C)=C1C3(C)C)[C@]1(OC(C)=O)CO[C@@H]1C[C@@H]2O [Paclitaxel, paclitaxel]",,,,,,,,,,,,,,,,significantly inhibited tumor growth,"IC50 ([1]; Homo sapiens, SK-OV-3, SK-OV-3, Table 7, paclitaxel combinations): 0.127 µM; IC50 ([1]; Homo sapiens, SK-OV-3, SKOV3, Table 5, FIG. 25): 0.039 µM; IC50 ([1]; Homo sapiens, SK-OV-3, SKOV3, Table 6, FIG. 26): 0.127 µM; Test/Control (%) at drug Concentration [μM] (MAXF MDA-MB-231; Table 14, 1.0E+00 μM): 10%; Test/Control (%) at drug Concentration [μM] (MAXF MDA-MB-231; Table 14, 1.0E−01 μM): 17%; Test/Control (%) at drug Concentration [μM] (MAXF MDA-MB-231; Table 14, 1.0E−02 μM): 45%; Test/Control (%) at drug Concentration [μM] (MAXF MDA-MB-231; Table 14, 1.0E−03 μM): 110%; Test/Control (%) at drug Concentration [μM] (MAXF MDA-MB-231; Table 14, 3.2E−01 μM): 14%; Test/Control (%) at drug Concentration [μM] (MAXF MDA-MB-231; Table 14, 3.2E−02 μM): 24%; Test/Control (%) at drug Concentration [μM] (MAXF Hs 578T; Table 14, 1.0E+00 μM): 38%; Test/Control (%) at drug Concentration [μM] (MAXF Hs 578T; Table 14, 1.0E−01 μM): 44%; Test/Control (%) at drug Concentration [μM] (MAXF Hs 578T; Table 14, 1.0E−02 μM): 89%; Test/Control (%) at drug Concentration [μM] (MAXF Hs 578T; Table 14, 3.2E−01 μM): 42%; Test/Control (%) at drug Concentration [μM] (MAXF Hs 578T; Table 14, 3.2E−02 μM): 52%"
N.N.O=C([O-])C1(C(=O)[O-])CCC1.[Pt+2] [carboplatin],,,,,,,,,,,,,,,,significantly inhibited tumor growth,IC50 (A2780-CP20): 34.9 µM; IC50 (A2780-PAR): 1.1 µM
